Reference: PubChem BioAssay (NCI)
Several values for one entry are separate records, joined by “and”; a condition that tells them apart may be missing. Equal entries are not always repeated.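 Briefly, cells in 96-well plates were exposed to five compound concentrations for 48 h, and endpoints were estimated by linear interpolation. GI50 is the concentration that inhibits growth by half. TGI is the concentration that stops growth completely.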

What was measured:
Assay in all cases: NCI anticancer screen, dose series, 48 h
HOP-62 NSCLC = tested on: HOP-62 NSCLC
UACC-62 melanoma = tested on: UACC-62 melanoma
PC-3 prostate = tested on: PC-3 prostate
MOLT-4 leukemia = tested on: MOLT-4 leukemia
NCI-H226 lung = tested on: NCI-H226 lung
SR leukemia = tested on: SR leukemia
NCI-H522 lung = tested on: NCI-H522 lung
SK-MEL-5 melanoma = tested on: SK-MEL-5 melanoma
A498 renal = tested on: A498 renal
HT29 colon = tested on: HT29 colon

Compound	TGI (HOP-62 NSCLC)	TGI (UACC-62 melanoma)	TGI (PC-3 prostate)	TGI (MOLT-4 leukemia)	TGI (NCI-H226 lung)	TGI (SR leukemia)	TGI (NCI-H522 lung)	TGI (SK-MEL-5 melanoma)	GI50 (HOP-62 NSCLC)	GI50 (UACC-62 melanoma)	GI50 (A498 renal)	TGI (A498 renal)	GI50 (HT29 colon)	GI50 (PC-3 prostate)	GI50 (MOLT-4 leukemia)	GI50 (NCI-H226 lung)	GI50 (SR leukemia)	GI50 (NCI-H522 lung)	GI50 (SK-MEL-5 melanoma)	TGI (HT29 colon)
Nc1ncnc2c1ncn2C1OC(CO)CC1O (configuration not stated)	> 100 µM	> 100 µM	40.4 µM	> 100 µM	> 100 µM	> 100 µM	38.7 µM	> 100 µM	–	–	–	–	–	–	–	–	–	–	–	–
CC(C)C[C@H](NC(=O)[C@H](Cc1ccccc1)NC(=O)c1cnccn1)B(O)O	–	< 0.0168 µM and 0.00498 µM	0.197 µM and 0.0952 µM and 0.106 µM	–	< 0.01 µM and 0.00206 µM	–	< 0.215 µM and 0.00414 µM	0.014 µM and 0.00411 µM	< 0.0131 µM and 0.00317 µM	0.00149 µM	0.000833 µM	< 0.01 µM and 0.00352 µM	0.00166 µM	0.0125 µM and 0.00364 µM	0.00143 µM	< 0.01 µM and 0.00089 µM	0.00219 µM	0.00143 µM	< 0.01 µM and 0.0014 µM	–
O=C(/C=C/c1ccccc1)Nc1ncc(Cc2ccccc2)s1	> 39 µM	4.28 µM	> 100 µM	> 100 µM	> 20.8 µM	10.2 µM	3.83 µM	10.1 µM	0.398 µM	0.125 µM	0.24 µM	3.39 µM	0.138 µM	0.275 µM	0.345 µM	1.16 µM	0.0501 µM	0.112 µM	0.196 µM	> 32.8 µM
CS(=O)(=O)OCCCCOS(C)(=O)=O	244 µM and 983 µM	250 µM and > 1000 µM	250 µM and > 1000 µM	233 µM and 992 µM	250 µM and > 1000 µM	223 µM and > 1000 µM	250 µM and > 1000 µM	242 µM and > 1000 µM	492 µM	472 µM	> 883 µM	249 µM and > 1000 µM	> 846 µM	> 1000 µM	–	> 966 µM	100 µM	466 µM	520 µM	250 µM and > 1000 µM
CS(=O)(=O)c1nccc(-c2c(-c3cccc(OCc4ccccc4)c3)nc3sccn23)n1	> 100 µM	> 100 µM	> 26.8 µM	> 100 µM	> 100 µM	> 100 µM	> 100 µM	10 µM	> 80.9 µM	13.8 µM	13.5 µM	> 89.9 µM	> 41.2 µM	6.35 µM	1.64 µM	12.1 µM	4.49 µM	9.12 µM	1.39 µM	> 100 µM
COc1ccc(C2CC(c3ccc4ccccc4c3)=NN2/C=C2\SC(=S)N(NC(=O)Cc3ccccc3Nc3c(Cl)cccc3Cl)C2=O)cc1 (configuration not stated)	> 49.9 µM	> 43.8 µM	> 54 µM	> 100 µM	> 32.3 µM	> 100 µM	4.76 µM	> 36.9 µM	0.958 µM	0.606 µM	0.302 µM	0.99 µM	2.3 µM	0.714 µM	0.473 µM	1.14 µM	0.309 µM	0.372 µM	0.484 µM	> 26.3 µM
Cc1cc(C)nc(NS(=O)(=O)c2ccc(Nc3nc4nc(NCc5ccccc5)nc(-c5ccc(O)cc5)c4c(=O)[nH]3)cc2)n1	> 100 µM	> 100 µM	> 100 µM	12.8 µM	> 100 µM	81.3 µM	22.8 µM	> 100 µM	> 100 µM	25.2 µM	24.5 µM	> 100 µM	57.9 µM	19.8 µM	2.38 µM	55.8 µM	17.9 µM	2.61 µM	25.7 µM	> 100 µM
COc1ccc(NC(=O)COc2ccccc2)c(C(N)=O)c1	43.4 µM	> 81.2 µM	> 100 µM	> 100 µM	> 100 µM	> 50.2 µM	13.3 µM	> 76.2 µM	1.07 µM	1.18 µM	0.757 µM	8.38 µM	0.43 µM	0.712 µM	2.67 µM	20.9 µM	0.466 µM	0.812 µM	1.11 µM	> 100 µM
NNC(=O)C(O)C(O)C(O)CO (configuration not stated)	> 100 µM	> 100 µM	> 100 µM	–	> 100 µM	> 100 µM	> 100 µM	> 100 µM	–	–	–	> 100 µM	–	–	–	–	–	–	–	> 100 µM
COc1cccc(-c2cc(C(=O)Nc3ccc(Cl)cc3)nc(N)n2)c1	> 100 µM	> 100 µM	–	> 100 µM	> 100 µM	> 100 µM	> 100 µM	> 100 µM	–	–	–	> 100 µM	–	–	–	–	–	–	–	> 100 µM
NC(N)=NS(=O)(=O)c1ccc(NC(=O)c2cccn3c(=O)c4ccccc4nc23)cc1	> 100 µM	> 100 µM	–	85.9 µM	> 100 µM	84.3 µM	> 100 µM	> 100 µM	–	–	–	> 100 µM	–	–	–	–	–	–	–	> 100 µM
COc1ccc(C(=O)OC2C(OC3C(O)COC(O[C@H]4C[C@H]5[C@@H]6CC=C7C[C@@H](O)CC[C@]7(C)[C@H]6CC[C@]5(C)[C@H]4[C@H](C)C(=O)CCC(C)C)C3OC(=O)C(C)C)OCC(O)C2O)cc1 (some centres not stated)	1.45 µM	0.0185 µM	0.446 µM	0.0192 µM	–	3.34 µM	0.273 µM	0.36 µM	0.0129 µM	0.00668 µM	0.00395 µM	0.0161 µM	0.0507 µM	0.00821 µM	0.00649 µM	–	0.0121 µM	0.0306 µM	0.019 µM	4.85 µM
COc1ccc(-c2cc(=O)c3c(OC)c(O)c(OC)cc3o2)cc1	> 100 µM	> 100 µM	–	> 100 µM	> 100 µM	> 100 µM	> 100 µM	94.9 µM	–	–	–	88.5 µM	–	–	–	–	–	–	–	> 100 µM
COc1ccc(C(=C(C#N)C#N)c2ccc(OC)cc2)cc1	> 100 µM	> 100 µM	–	> 100 µM	> 100 µM	> 100 µM	> 100 µM	–	–	–	–	> 100 µM	–	–	–	–	–	–	–	> 100 µM
C=C(c1ccccc1)[C@@]1(O)CCCC[C@H]1NC(c1ccccc1)c1ccccc1	31 µM	27.8 µM	–	8.24 µM	22.6 µM	6.98 µM	21.6 µM	22.8 µM	–	–	–	27.7 µM	–	–	–	–	–	–	–	27.3 µM
CCCCCCCCCCCCCCCCCc1cc(Cl)nc(Cl)n1	> 100 µM	> 100 µM	> 100 µM	> 100 µM	> 100 µM	> 100 µM	–	> 100 µM	–	–	–	–	–	–	–	–	–	–	–	> 100 µM
